Source: ChEMBL document CHEMBL4304811, “Development of a Water-Soluble Indolylmaleimide Derivative IM-93 Showing Dual Inhibition of Ferroptosis and NETosis” (ACS Med Chem Lett, 2019)

How the values were obtained:
[1] = molecular target: Aurora kinase A (Homo sapiens) (UniProt O14965); assay: Binding affinity to wild-type human partial length AURKA (E122 to K401 residues) expressed in mammalian expression system assessed as residual binding level at 10 uM by Kinomescan method relative to control
[2] = molecular target: Serine/threonine-protein kinase DCLK1 (Homo sapiens) (UniProt O15075); assay: Binding affinity to wild-type human partial length DCAMKL1 (L270 to A662 residues) expressed in mammalian expression system assessed as residual binding level at 10 uM by Kinomescan method relative to control
[3] = tested on: Tyrosine-protein kinase ABL1 (Homo sapiens), P00519 [H396P]; assay: Binding affinity to human phosphorylated ABL1 H396P mutant (S229 to K512 residues) expressed in mammalian expression system assessed as residual binding level at 10 uM by Kinomescan method relative to control
[4] = molecular target: Serine/threonine-protein kinase Chk2 (Homo sapiens) (UniProt O96017); assay: Binding affinity to wild-type human partial length CHEK2 (S253 to E574 residues) expressed in bacterial expression system assessed as residual binding level at 10 uM by Kinomescan method relative to control
[5] = molecular target: Serine/threonine-protein kinase mTOR (Homo sapiens) (UniProt P42345); assay: Binding affinity to wild-type human partial length MTOR (L1382 to W2549 residues) expressed in mammalian expression system assessed as residual binding level at 10 uM by Kinomescan method relative to control
[6] = molecular target: Tyrosine-protein kinase JAK1 (Homo sapiens) (UniProt P23458); assay: Binding affinity to wild-type human partial length JAK1 JH2 pseudokinase domain (R537 to D855 residues) expressed in mammalian expression system assessed as residual binding level at 10 uM by Kinomescan method relative to control
[7] = tested on: Epidermal growth factor receptor (Homo sapiens), P00533 [T790M]; assay: Binding affinity to human partial length EGFR T790M mutant (R669 to G1022 residues) expressed in mammalian expression system assessed as residual binding level at 10 uM by Kinomescan method relative to control
[8] = tested on: Tyrosine-protein kinase ABL1 (Homo sapiens), P00519 [F317L]; assay: Binding affinity to human phosphorylated ABL1 F317L mutant (S229 to K512 residues) expressed in mammalian expression system assessed as residual binding level at 10 uM by Kinomescan method relative to control
[9] = molecular target: Tyrosine-protein kinase JAK2 (Homo sapiens) (UniProt O60674); assay: Binding affinity to wild-type human partial length JAK2 JH1 catalytic domain (A829 to G1132 residues) expressed in mammalian expression system assessed as residual binding level at 10 uM by Kinomescan method relative to control
[10] = tested on: Receptor-type tyrosine-protein kinase FLT3 (Homo sapiens), P36888 [K663Q]; assay: Binding affinity to human partial length FLT3 K663Q mutant (V592 to Y969 residues) expressed in bacterial expression system assessed as residual binding level at 10 uM by Kinomescan method relative to control
[11] = tested on: Fibroblast growth factor receptor 3 (Homo sapiens), P22607 [G697C]; assay: Binding affinity to human partial length FGFR3 G697C mutant (R442 to S771 residues) expressed in bacterial expression system assessed as residual binding level at 10 uM by Kinomescan method relative to control
[12] = tested on: Tyrosine-protein kinase ABL1 (Homo sapiens), P00519 [T315I]; assay: Binding affinity to human non-phosphorylated ABL1 T315I mutant (S229 to K512 residues) expressed in mammalian expression system assessed as residual binding level at 10 uM by Kinomescan method relative to control
[13] = tested on: Receptor-type tyrosine-protein kinase FLT3 (Homo sapiens), P36888 [D835H]; assay: Binding affinity to human partial length FLT3 D835H mutant (V592 to Y969 residues) expressed in bacterial expression system assessed as residual binding level at 10 uM by Kinomescan method relative to control
[14] = molecular target: Receptor-type tyrosine-protein kinase FLT3 (Homo sapiens) (UniProt P36888); assay: Binding affinity to wild-type human partial length autoinhibited FLT3 (H564 to Y969 residues) expressed in mammalian expression system assessed as residual binding level at 10 uM by Kinomescan method relative to control
[15] = molecular target: Serine/threonine-protein kinase 32C (Homo sapiens) (UniProt Q86UX6); assay: Binding affinity to wild-type human partial length YANK3 (M68 to G486 residues) expressed in bacterial expression system assessed as residual binding level at 10 uM by Kinomescan method relative to control
[16] = molecular target: Cyclin-dependent kinase 4/cyclin D1 (Homo sapiens) (UniProt P11802+P24385); assay: Binding affinity to wild-type human full length CDK4/cyclinD1 (M1 to E303 residues) expressed in mammalian expression system assessed as residual binding level at 10 uM by Kinomescan method relative to control
[17] = molecular target: Serine/threonine-protein kinase Nek3 (Homo sapiens) (UniProt P51956); assay: Binding affinity to wild-type human full length NEK3 (M1 to R506 residues) expressed in mammalian expression system assessed as residual binding level at 10 uM by Kinomescan method relative to control
[18] = molecular target: G protein-coupled receptor kinase 4 (Homo sapiens) (UniProt P32298); assay: Binding affinity to wild-type human full length GRK4 (M1 to C578 residues) expressed in bacterial expression system assessed as residual binding level at 10 uM by Kinomescan method relative to control
[19] = molecular target: Ephrin type-A receptor 7 (Homo sapiens) (UniProt Q15375); assay: Binding affinity to wild-type human partial length EPHA7 (Y608 to S912 residues) expressed in bacterial expression system assessed as residual binding level at 10 uM by Kinomescan method relative to control
[20] = molecular target: Serine/threonine-protein kinase haspin (Homo sapiens) (UniProt Q8TF76); assay: Binding affinity to wild-type human partial length HASPIN (I452 to K798 residues) expressed in mammalian expression system assessed as residual binding level at 10 uM by Kinomescan method relative to control
[21] = molecular target: Activin receptor type-1 (Homo sapiens) (UniProt Q04771); assay: Binding affinity to wild-type human ACVR1 (C188 to C509 residues) expressed in bacterial expression system assessed as residual binding level at 10 uM by Kinomescan method relative to control
[22] = molecular target: Protein kinase C delta type (Homo sapiens) (UniProt Q05655); assay: Binding affinity to wild-type human partial length PRKCD (Q328 to D676 residues) expressed in bacterial expression system assessed as residual binding level at 10 uM by Kinomescan method relative to control
[23] = molecular target: Proto-oncogene tyrosine-protein kinase Src (Homo sapiens) (UniProt P12931); assay: Binding affinity to wild-type human partial length SRC (L240 to L536 residues) expressed in bacterial expression system assessed as residual binding level at 10 uM by Kinomescan method relative to control
[24] = molecular target: Tyrosine-protein kinase receptor TYRO3 (Homo sapiens) (UniProt Q06418); assay: Binding affinity to wild-type human partial length TYRO3 (S497 to T814 residues) expressed in bacterial expression system assessed as residual binding level at 10 uM by Kinomescan method relative to control

Sequence of Proto-oncogene tyrosine-protein kinase Src (Homo sapiens) (P12931 2-536 limits assumed): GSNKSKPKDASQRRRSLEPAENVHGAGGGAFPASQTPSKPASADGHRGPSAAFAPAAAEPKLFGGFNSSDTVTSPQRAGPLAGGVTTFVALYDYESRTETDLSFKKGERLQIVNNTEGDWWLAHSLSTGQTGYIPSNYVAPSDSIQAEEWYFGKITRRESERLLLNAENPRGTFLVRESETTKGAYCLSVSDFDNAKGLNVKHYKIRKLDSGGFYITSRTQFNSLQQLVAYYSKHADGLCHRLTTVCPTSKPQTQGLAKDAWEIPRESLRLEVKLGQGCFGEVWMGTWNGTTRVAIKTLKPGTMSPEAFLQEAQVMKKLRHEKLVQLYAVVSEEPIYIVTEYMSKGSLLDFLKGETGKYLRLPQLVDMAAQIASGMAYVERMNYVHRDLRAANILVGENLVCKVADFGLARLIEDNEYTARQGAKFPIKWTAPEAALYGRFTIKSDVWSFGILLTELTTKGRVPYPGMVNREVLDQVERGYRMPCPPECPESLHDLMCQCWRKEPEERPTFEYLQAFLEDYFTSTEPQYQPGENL
Sequence of Protein kinase C delta type (Homo sapiens) (Q05655 whole entry, looked up, the tested form may be a part): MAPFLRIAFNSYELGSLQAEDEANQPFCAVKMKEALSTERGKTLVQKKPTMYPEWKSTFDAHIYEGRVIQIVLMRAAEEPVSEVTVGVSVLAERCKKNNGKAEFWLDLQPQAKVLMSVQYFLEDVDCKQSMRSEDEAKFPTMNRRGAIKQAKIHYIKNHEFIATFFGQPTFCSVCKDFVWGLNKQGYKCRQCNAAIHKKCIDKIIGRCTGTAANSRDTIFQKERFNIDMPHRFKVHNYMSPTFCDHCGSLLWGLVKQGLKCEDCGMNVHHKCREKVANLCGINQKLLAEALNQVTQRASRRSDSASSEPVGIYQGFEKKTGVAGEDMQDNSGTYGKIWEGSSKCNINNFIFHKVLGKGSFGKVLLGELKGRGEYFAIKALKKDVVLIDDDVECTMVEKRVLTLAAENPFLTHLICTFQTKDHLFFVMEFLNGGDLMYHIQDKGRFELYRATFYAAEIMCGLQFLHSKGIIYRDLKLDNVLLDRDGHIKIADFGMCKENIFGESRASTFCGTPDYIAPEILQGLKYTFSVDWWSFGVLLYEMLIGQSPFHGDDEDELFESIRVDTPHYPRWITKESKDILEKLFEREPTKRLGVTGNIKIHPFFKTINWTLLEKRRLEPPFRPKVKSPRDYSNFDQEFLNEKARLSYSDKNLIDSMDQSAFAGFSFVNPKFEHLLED
Sequence of Fibroblast growth factor receptor 3 (Homo sapiens), P22607 [G697C] (P22607 whole entry G697C, the tested form may be a part): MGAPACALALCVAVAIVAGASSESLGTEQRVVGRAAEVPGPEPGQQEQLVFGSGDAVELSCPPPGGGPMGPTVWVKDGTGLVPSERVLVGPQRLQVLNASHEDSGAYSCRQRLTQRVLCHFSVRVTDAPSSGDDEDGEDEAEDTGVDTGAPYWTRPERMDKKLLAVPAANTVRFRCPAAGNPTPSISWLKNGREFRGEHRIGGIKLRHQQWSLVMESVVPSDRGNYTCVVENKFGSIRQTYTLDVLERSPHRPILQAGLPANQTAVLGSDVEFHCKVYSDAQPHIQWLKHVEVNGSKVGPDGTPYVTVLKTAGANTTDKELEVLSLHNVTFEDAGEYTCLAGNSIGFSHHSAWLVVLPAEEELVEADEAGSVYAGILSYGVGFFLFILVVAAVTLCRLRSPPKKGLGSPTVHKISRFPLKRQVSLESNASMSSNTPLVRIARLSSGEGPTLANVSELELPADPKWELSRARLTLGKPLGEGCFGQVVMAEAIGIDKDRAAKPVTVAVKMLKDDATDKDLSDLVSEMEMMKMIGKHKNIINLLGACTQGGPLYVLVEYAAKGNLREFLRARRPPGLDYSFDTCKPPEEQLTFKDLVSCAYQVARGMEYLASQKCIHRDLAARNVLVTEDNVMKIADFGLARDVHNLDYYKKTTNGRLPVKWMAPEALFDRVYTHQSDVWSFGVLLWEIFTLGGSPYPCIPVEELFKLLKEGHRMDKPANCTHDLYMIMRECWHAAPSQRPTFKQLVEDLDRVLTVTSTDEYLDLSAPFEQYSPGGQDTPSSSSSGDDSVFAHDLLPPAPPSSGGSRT
Sequence of Serine/threonine-protein kinase Chk2 (Homo sapiens) (O96017 whole entry, the tested form may be a part): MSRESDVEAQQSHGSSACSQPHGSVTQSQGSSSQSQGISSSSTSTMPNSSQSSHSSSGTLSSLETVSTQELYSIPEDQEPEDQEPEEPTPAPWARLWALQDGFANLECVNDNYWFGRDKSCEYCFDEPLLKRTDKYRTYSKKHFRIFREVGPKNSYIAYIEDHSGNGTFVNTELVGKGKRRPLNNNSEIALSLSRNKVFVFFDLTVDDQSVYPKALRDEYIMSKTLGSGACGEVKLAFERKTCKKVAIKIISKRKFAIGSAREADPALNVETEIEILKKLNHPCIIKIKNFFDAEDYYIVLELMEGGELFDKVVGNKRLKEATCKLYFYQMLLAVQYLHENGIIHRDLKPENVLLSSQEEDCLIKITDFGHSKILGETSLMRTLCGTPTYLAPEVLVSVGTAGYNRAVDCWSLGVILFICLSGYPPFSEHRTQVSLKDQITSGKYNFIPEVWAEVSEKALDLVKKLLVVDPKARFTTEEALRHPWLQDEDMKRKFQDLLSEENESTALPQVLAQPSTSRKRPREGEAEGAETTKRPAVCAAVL
Sequence of Serine/threonine-protein kinase 32C (Homo sapiens) (Q86UX6 whole entry, the tested form may be a part): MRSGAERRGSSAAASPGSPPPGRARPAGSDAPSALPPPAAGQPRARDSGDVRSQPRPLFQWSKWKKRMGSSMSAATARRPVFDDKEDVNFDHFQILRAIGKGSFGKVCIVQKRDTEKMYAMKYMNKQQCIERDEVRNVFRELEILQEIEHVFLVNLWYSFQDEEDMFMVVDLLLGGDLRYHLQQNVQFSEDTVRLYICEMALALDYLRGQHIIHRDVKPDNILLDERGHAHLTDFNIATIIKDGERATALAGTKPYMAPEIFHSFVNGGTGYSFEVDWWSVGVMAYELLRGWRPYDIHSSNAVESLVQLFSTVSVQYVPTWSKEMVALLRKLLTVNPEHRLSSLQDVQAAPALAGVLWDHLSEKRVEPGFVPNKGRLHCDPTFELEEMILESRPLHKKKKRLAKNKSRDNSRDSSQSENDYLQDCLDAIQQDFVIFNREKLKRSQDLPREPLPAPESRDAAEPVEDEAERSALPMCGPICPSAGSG
Sequence of Tyrosine-protein kinase JAK1 (Homo sapiens) (P23458 whole entry, the tested form may be a part): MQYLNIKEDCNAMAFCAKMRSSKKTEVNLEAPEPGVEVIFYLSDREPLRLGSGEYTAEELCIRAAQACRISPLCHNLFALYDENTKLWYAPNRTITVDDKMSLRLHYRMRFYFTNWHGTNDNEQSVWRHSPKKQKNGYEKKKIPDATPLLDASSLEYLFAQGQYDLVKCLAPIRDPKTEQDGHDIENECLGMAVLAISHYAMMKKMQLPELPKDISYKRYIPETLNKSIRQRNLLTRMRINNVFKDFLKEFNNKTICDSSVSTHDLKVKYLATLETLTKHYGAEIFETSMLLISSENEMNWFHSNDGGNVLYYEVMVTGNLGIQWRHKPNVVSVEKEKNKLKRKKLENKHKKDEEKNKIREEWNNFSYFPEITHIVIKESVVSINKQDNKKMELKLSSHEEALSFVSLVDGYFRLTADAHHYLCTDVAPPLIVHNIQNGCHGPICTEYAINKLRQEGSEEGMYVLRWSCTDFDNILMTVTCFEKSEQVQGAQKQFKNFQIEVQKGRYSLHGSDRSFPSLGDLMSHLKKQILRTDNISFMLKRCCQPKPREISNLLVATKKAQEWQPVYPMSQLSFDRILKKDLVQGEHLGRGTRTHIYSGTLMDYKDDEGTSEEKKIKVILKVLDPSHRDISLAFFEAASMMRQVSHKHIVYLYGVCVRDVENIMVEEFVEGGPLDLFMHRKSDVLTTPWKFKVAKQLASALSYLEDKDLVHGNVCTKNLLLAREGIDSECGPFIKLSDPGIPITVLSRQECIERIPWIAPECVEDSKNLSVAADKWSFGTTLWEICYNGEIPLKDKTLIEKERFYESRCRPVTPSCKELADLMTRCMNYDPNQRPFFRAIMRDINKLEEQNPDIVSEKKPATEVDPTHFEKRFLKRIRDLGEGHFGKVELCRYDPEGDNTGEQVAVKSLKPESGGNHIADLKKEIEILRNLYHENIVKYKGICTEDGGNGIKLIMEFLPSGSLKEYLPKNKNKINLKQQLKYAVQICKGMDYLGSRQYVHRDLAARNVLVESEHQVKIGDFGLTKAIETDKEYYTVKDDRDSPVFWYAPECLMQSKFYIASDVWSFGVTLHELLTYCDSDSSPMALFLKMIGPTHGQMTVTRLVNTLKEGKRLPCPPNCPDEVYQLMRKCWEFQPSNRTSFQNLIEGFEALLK
Sequence of Aurora kinase A (Homo sapiens) (O14965 whole entry, the tested form may be a part): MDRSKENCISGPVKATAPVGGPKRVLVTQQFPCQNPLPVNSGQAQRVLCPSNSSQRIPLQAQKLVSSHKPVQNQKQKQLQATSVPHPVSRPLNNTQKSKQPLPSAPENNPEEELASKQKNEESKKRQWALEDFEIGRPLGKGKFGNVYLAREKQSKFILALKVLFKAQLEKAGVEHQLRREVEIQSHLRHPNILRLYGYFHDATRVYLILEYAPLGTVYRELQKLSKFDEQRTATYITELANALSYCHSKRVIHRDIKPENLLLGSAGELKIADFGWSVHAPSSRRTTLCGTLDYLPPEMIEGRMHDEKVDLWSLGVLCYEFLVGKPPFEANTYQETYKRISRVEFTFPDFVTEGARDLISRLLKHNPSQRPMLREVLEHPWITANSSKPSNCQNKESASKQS

SMILES: CC(C)N1C(=O)C(NCCCN(C)C)=C(c2cn(C)c3ccccc23)C1=O.Cl
- Activity [1]: 90%
- Activity [2]: 94%
- Activity [3]: 93%
- Activity [4]: 80%
- Activity [5]: 87%
- Activity [6]: 88%
- Activity [7]: 91%
- Activity [8]: 83%
- Activity [9]: 86%
- Activity [10]: 97%
- Activity [11]: 79%
- Activity [12]: 93%
- Activity [13]: 88%
- Activity [14]: 88%
- Activity [15]: 98%
- Activity [16]: 88%
- Activity [17]: 94%
- Activity [18]: 88%
- Activity [19]: 93%
- Activity [20]: 100%
- Activity [21]: 100%
- Activity [22]: 100%
- Activity [23]: 93%
- Activity [24]: 100%
